ChEMBL document CHEMBL1201862, “PubChem BioAssay data set” (2004)
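Interpolation was linear, between the two tested concentrations surrounding the appropriate level; five concentrations were tested over 48 hours in 96-well plates. GI50 is the concentration that inhibits growth by half.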 The source made the active and inactive calls. No stated cut-off is given here; in the data, active = GI50 up to about 1.1 µM and inactive = higher.

What was measured:
Assay in all cases: NCI anticancer screen, dose series, 48 h
[1] = tested on: HT-29
[2] = tested on: EKVX
[3] = tested on: OVCAR-3
[4] = tested on: A498
[5] = tested on: TK-10
[6] = tested on: A549
[7] = tested on: K562
[8] = tested on: Malme-3M
[9] = tested on: SK-OV-3
[10] = tested on: UACC-257
[11] = tested on: SW-620
[12] = tested on: SK-MEL-2
[13] = tested on: SK-MEL-5
[14] = tested on: CAKI-1
[15] = tested on: KM12
[16] = tested on: NCI-H460
[17] = tested on: SF-268
[18] = tested on: COLO 205
[19] = tested on: SK-MEL-28
[20] = tested on: RPMI-8226

Measured: GI50

CCCS(=O)(=O)O
inactive: [1] > 100 µM | [2] > 100 µM | [3] > 100 µM | [4] > 100 µM | [5] > 100 µM | [6] > 100 µM | [7] > 100 µM | [8] > 100 µM | [9] > 100 µM | [10] > 100 µM | [11] > 100 µM | [12] > 100 µM | [13] > 100 µM | [14] > 100 µM | [15] > 100 µM | [16] > 100 µM | [17] > 100 µM | [18] > 100 µM | [19] > 100 µM | [20] > 100 µM

C/C(=C1\N=C(c2ccccc2)OC1=O)c1ccccc1
inactive: [1] > 100 µM | [2] > 100 µM | [3] > 100 µM | [4] > 100 µM | [5] > 100 µM | [6] > 100 µM | [7] > 100 µM | [8] > 100 µM | [9] > 100 µM | [10] > 100 µM | [11] > 100 µM | [12] > 100 µM | [13] > 100 µM | [14] > 100 µM | [15] > 100 µM | [16] > 100 µM | [17] > 100 µM | [18] > 100 µM | [19] > 100 µM | [20] > 100 µM

Cc1ccc(CCC(=O)C(=O)O)s1
inactive: [1] > 100 µM | [2] > 100 µM | [3] > 100 µM | [4] 89.5 µM | [5] 78.7 µM | [6] > 100 µM | [7] > 100 µM | [8] > 100 µM | [9] > 100 µM | [10] > 100 µM | [11] > 100 µM | [12] > 100 µM | [13] > 100 µM | [14] 30.9 µM | [15] > 100 µM | [16] > 100 µM | [17] > 100 µM | [18] > 100 µM | [19] > 100 µM | [20] > 100 µM

CO[C@H]1C=C[C@@]23c4cc5c(cc4CO[C@]2(O)CN(C)[C@H]3C1)OCO5
inactive: [1] > 100 µM | [2] > 100 µM | [3] > 100 µM | [4] > 100 µM | [5] > 100 µM | [6] > 100 µM | [7] > 100 µM | [8] > 100 µM | [9] > 100 µM | [10] > 100 µM | [11] > 100 µM | [12] > 100 µM | [13] > 100 µM | [14] > 100 µM | [15] > 100 µM | [16] > 100 µM | [17] > 100 µM | [18] > 100 µM | [19] > 100 µM | [20] > 100 µM

CC1C(=O)N(c2ccccc2)NC12CCCc1ccccc12 (stereo not given)
inactive: [1] > 100 µM | [2] > 100 µM | [3] > 100 µM | [4] > 100 µM | [5] > 100 µM | [6] > 100 µM | [7] > 100 µM | [8] > 100 µM | [9] > 100 µM | [10] > 100 µM | [11] > 100 µM | [12] > 100 µM | [13] > 100 µM | [14] > 100 µM | [15] > 100 µM | [16] > 100 µM | [17] > 100 µM | [18] > 100 µM | [19] > 100 µM | [20] > 100 µM

CN(C)c1ccc(/C=C2/SC(=S)NC2=O)cc1
inactive: [1] > 100 µM | [2] > 100 µM | [3] > 100 µM | [4] > 100 µM | [5] 21.2 µM | [6] > 100 µM | [7] > 100 µM | [8] > 100 µM | [9] 29.1 µM | [10] > 100 µM | [11] > 100 µM | [12] > 100 µM | [13] > 100 µM | [14] > 100 µM | [15] 50.7 µM | [16] > 100 µM | [17] > 100 µM | [18] > 100 µM | [19] > 100 µM | [20] > 100 µM

COc1cc([C@@H]2c3cc4c(cc3[C@@H](c3c(O)cc(O)c5c3O[C@H](c3ccc(O)c(O)c3)[C@@H](O)C5)[C@H]3COC(=O)[C@H]23)OCO4)cc(OC)c1O
inactive: [1] > 100 µM | [2] > 100 µM | [3] > 100 µM | [4] > 100 µM | [5] > 100 µM | [6] > 100 µM | [7] 31.7 µM | [8] > 100 µM | [9] > 100 µM | [10] > 100 µM | [11] 58.9 µM | [12] > 100 µM | [13] 46.7 µM | [14] > 100 µM | [15] > 100 µM | [16] > 100 µM | [17] > 100 µM | [18] > 100 µM | [19] 89.1 µM | [20] 53 µM
